In ChEMBL document CHEMBL4507301 (2021):

Key:
[1] = system: Tyrosine-protein kinase ABL1 (Homo sapiens), P00519 [Q252H]; details: Compound concentration 1000.0 nM
[2] = target: Activin receptor type-1B (Homo sapiens) (UniProt P36896); details: Compound concentration 1000.0 nM
[3] = target: Activin receptor type-2A (Homo sapiens) (UniProt P27037); details: Compound concentration 1000.0 nM
[4] = target: Activin receptor type-1-like (Homo sapiens) (UniProt P37023); details: Compound concentration 1000.0 nM
[5] = target: Calcium/calmodulin-dependent protein kinase type II subunit beta (Homo sapiens) (UniProt Q13554); details: Compound concentration 1000.0 nM
[6] = target: Cyclin-dependent kinase 11A (Homo sapiens) (UniProt Q9UQ88); details: Compound concentration 1000.0 nM
[7] = target: Cyclin-dependent kinase 2 (Homo sapiens) (UniProt P24941); details: Compound concentration 1000.0 nM
[8] = target: Casein kinase I isoform gamma-1 (Homo sapiens) (UniProt Q9HCP0); details: Compound concentration 1000.0 nM
[9] = target: Casein kinase II subunit alpha (Homo sapiens) (UniProt P68400); details: Compound concentration 1000.0 nM
Sequence of Casein kinase II subunit alpha (Homo sapiens) (P68400 whole entry, looked up): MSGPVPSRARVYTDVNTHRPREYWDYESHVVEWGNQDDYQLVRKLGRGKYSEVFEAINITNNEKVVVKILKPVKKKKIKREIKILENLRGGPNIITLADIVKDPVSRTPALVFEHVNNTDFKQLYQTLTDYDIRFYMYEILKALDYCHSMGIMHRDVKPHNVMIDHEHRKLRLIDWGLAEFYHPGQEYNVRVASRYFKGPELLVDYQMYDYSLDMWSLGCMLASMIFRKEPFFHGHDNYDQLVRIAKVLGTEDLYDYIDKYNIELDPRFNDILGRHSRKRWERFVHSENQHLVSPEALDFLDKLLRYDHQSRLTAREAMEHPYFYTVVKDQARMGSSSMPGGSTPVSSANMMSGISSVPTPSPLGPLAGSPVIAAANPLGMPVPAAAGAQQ

[10] = target: Megakaryocyte-associated tyrosine-protein kinase (Homo sapiens) (UniProt P42679); details: Compound concentration 1000.0 nM
[11] = target: Serine/threonine-protein kinase MRCK gamma (Homo sapiens) (UniProt Q6DT37); details: Compound concentration 1000.0 nM
[12] = target: Ephrin type-A receptor 6 (Homo sapiens) (UniProt Q9UF33); details: Compound concentration 1000.0 nM
[13] = target: Ephrin type-B receptor 1 (Homo sapiens) (UniProt P54762); details: Compound concentration 1000.0 nM
[14] = target: Mitogen-activated protein kinase 4 (Homo sapiens) (UniProt P31152); details: Compound concentration 1000.0 nM
Sequence of Mitogen-activated protein kinase 4 (Homo sapiens) (P31152 whole entry): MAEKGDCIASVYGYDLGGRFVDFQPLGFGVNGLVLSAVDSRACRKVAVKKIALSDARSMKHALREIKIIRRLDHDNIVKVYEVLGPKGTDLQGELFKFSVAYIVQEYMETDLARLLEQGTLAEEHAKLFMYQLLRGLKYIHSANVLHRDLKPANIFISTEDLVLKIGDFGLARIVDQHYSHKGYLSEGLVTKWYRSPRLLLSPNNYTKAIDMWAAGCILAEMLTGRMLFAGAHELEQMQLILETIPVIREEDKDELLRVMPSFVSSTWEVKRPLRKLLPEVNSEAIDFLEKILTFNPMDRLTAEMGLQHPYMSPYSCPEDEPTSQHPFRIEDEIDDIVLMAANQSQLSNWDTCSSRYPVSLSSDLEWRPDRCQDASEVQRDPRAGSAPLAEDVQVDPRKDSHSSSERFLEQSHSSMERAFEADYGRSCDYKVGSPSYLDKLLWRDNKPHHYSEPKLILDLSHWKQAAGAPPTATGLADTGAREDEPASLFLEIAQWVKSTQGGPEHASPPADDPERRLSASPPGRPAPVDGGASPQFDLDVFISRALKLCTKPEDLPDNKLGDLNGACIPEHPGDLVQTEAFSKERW

[15] = system: Fibroblast growth factor receptor 3 (Homo sapiens), P22607 [G697C]; details: Compound concentration 1000.0 nM
Sequence of Fibroblast growth factor receptor 3 (Homo sapiens), P22607 [G697C] (P22607 whole entry G697C): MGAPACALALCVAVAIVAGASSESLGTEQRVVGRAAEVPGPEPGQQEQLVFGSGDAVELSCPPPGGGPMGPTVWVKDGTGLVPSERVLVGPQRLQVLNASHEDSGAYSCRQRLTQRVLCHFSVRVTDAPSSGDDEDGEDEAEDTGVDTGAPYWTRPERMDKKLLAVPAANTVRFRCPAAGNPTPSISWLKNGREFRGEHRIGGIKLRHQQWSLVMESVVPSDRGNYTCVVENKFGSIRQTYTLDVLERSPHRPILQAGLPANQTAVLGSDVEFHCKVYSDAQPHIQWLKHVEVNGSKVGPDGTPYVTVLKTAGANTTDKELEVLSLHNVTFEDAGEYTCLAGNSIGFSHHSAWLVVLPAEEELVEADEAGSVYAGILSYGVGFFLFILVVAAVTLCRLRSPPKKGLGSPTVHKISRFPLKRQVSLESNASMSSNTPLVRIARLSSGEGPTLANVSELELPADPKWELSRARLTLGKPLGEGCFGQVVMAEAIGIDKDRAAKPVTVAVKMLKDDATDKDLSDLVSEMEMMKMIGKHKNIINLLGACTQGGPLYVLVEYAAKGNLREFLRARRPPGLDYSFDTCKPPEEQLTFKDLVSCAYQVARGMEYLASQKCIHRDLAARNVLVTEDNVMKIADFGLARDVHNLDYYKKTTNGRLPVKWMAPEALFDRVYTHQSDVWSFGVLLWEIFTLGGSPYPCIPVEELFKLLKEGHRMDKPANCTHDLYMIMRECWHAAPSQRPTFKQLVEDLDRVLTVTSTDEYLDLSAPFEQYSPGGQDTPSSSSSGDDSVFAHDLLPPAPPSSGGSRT

[16] = target: Serine/threonine-protein kinase haspin (Homo sapiens) (UniProt Q8TF76); details: Compound concentration 1000.0 nM
[17] = target: Tyrosine-protein kinase JAK1 (Homo sapiens) (UniProt P23458); details: Compound concentration 1000.0 nM
Sequence of Tyrosine-protein kinase JAK1 (Homo sapiens) (P23458 whole entry): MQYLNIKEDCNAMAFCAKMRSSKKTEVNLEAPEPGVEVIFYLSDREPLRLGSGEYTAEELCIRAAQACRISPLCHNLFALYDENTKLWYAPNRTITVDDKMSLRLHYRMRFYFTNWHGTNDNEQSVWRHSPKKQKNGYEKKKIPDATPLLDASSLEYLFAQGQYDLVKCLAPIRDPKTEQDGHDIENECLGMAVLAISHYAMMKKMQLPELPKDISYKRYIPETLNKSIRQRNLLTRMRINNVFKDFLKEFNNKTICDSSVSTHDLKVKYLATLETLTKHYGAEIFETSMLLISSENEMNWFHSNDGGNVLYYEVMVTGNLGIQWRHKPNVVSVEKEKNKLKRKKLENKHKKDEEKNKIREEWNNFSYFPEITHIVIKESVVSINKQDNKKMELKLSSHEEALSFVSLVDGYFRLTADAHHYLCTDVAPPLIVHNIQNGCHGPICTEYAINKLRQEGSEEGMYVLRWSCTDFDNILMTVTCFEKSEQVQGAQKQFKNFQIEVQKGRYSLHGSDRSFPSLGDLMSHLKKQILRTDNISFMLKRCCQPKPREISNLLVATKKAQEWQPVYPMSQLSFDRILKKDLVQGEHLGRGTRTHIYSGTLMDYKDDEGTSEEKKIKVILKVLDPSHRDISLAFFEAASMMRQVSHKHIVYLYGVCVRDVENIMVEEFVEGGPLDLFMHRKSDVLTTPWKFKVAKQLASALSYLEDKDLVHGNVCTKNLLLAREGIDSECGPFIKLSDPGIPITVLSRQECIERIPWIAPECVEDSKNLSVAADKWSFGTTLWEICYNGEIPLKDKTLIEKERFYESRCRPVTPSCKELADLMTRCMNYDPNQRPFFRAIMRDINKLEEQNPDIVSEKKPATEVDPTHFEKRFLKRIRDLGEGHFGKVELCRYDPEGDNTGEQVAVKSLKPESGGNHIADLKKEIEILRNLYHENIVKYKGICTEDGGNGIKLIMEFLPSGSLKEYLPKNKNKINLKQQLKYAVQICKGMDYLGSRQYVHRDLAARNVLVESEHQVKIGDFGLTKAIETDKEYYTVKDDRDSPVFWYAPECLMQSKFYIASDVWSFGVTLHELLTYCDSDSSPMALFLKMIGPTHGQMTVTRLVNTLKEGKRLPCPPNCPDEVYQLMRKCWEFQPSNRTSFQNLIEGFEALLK

[18] = target: Tyrosine-protein kinase Lck (Homo sapiens) (UniProt P06239); details: Compound concentration 1000.0 nM
Sequence of Tyrosine-protein kinase Lck (Homo sapiens) (P06239 2-509 limits assumed): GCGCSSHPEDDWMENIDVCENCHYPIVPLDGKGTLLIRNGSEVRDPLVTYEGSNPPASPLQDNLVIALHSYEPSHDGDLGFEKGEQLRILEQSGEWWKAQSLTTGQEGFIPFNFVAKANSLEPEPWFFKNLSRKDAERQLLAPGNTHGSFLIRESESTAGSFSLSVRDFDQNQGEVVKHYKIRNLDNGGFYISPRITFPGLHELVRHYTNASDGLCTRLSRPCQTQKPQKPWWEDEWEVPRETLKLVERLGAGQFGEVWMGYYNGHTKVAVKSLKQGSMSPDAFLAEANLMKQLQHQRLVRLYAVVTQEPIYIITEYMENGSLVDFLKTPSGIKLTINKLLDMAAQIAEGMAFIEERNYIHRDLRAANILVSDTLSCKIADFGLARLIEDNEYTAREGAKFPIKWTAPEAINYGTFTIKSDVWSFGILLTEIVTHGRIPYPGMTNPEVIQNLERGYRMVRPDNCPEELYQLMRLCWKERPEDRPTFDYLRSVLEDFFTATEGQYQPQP

[19] = target: Leukocyte tyrosine kinase receptor (Homo sapiens) (UniProt P29376); details: Compound concentration 1000.0 nM
[20] = target: Mitogen-activated protein kinase kinase kinase 2 (Homo sapiens) (UniProt Q9Y2U5); details: Compound concentration 1000.0 nM
[21] = target: Mitogen-activated protein kinase kinase kinase 3 (Homo sapiens) (UniProt Q99759); details: Compound concentration 1000.0 nM
[22] = target: Dual specificity mitogen-activated protein kinase kinase 3 (Homo sapiens) (UniProt P46734); details: Compound concentration 1000.0 nM
[23] = target: Serine/threonine-protein kinase mTOR (Homo sapiens) (UniProt P42345); details: Compound concentration 1000.0 nM
[24] = target: Myosin-IIIb (Homo sapiens) (UniProt Q8WXR4); details: Compound concentration 1000.0 nM
[25] = target: Serine/threonine-protein kinase 38-like (Homo sapiens) (UniProt Q9Y2H1); details: Compound concentration 1000.0 nM
[26] = target: Serine/threonine-protein kinase PAK 4 (Homo sapiens) (UniProt O96013); details: Compound concentration 1000.0 nM
[27] = target: Calcium-dependent protein kinase 1 (Plasmodium falciparum) (UniProt P62344); details: Compound concentration 1000.0 nM
[28] = target: Phosphatidylinositol 4,5-bisphosphate 3-kinase catalytic subunit beta isoform (Homo sapiens) (UniProt P42338); details: Compound concentration 1000.0 nM
[29] = target: cGMP-dependent protein kinase 1 (Homo sapiens) (UniProt Q13976); details: Compound concentration 1000.0 nM
[30] = target: Ribosomal protein S6 kinase alpha-1 (Homo sapiens) (UniProt Q15418); details: Compound concentration 1000.0 nM
[31] = target: Serine/threonine-protein kinase 16 (Homo sapiens) (UniProt O75716); details: Compound concentration 1000.0 nM
[32] = target: Serine/threonine-protein kinase 33 (Homo sapiens) (UniProt Q9BYT3); details: Compound concentration 1000.0 nM
Sequence of Serine/threonine-protein kinase 33 (Homo sapiens) (Q9BYT3 whole entry, looked up): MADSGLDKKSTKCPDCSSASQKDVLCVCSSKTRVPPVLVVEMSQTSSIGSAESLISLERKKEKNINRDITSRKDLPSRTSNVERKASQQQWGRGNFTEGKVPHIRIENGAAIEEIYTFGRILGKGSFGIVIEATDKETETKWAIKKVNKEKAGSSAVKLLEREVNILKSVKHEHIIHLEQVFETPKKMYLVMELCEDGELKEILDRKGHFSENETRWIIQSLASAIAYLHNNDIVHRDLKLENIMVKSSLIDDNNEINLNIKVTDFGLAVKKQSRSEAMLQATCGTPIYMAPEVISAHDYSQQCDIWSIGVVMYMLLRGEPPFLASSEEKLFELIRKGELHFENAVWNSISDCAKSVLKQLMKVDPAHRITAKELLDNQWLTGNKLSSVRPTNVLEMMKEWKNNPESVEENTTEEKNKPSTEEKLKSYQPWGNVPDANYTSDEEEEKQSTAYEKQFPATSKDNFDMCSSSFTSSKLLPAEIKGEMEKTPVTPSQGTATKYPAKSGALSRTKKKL

[33] = target: Tyrosine-protein kinase receptor Tie-1 (Homo sapiens) (UniProt P35590); details: Compound concentration 1000.0 nM
[34] = target: Testis-specific serine/threonine-protein kinase 1 (Homo sapiens) (UniProt Q9BXA7); details: Compound concentration 1000.0 nM
[35] = target: Testis-specific serine/threonine-protein kinase 3 (Homo sapiens) (UniProt Q96PN8); details: Compound concentration 1000.0 nM
[36] = target: Tyrosine-protein kinase receptor TYRO3 (Homo sapiens) (UniProt Q06418); details: Compound concentration 1000.0 nM
[37] = target: Wee1-like protein kinase 2 (Homo sapiens) (UniProt P0C1S8); details: Compound concentration 1000.0 nM
Sequence of Wee1-like protein kinase 2 (Homo sapiens) (P0C1S8 whole entry, looked up): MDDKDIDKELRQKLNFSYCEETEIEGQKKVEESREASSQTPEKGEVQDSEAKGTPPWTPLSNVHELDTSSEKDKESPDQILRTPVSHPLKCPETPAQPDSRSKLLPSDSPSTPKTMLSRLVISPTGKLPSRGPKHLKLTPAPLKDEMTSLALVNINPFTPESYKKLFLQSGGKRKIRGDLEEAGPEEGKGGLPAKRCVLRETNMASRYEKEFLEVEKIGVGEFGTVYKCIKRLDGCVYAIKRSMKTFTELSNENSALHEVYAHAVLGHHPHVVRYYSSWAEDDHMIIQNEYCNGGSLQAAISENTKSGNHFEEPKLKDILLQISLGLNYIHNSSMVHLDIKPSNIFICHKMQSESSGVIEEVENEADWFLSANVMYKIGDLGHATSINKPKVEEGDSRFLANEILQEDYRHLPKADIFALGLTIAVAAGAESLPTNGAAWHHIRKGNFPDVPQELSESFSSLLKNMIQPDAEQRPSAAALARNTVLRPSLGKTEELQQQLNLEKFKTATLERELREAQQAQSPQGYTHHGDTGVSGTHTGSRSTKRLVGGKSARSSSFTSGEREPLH

[38] = target: 5-hydroxytryptamine receptor 1E (Homo sapiens) (UniProt P28566); details: Compound concentration 10.0 uM
Sequence of 5-hydroxytryptamine receptor 1E (Homo sapiens) (P28566 whole entry): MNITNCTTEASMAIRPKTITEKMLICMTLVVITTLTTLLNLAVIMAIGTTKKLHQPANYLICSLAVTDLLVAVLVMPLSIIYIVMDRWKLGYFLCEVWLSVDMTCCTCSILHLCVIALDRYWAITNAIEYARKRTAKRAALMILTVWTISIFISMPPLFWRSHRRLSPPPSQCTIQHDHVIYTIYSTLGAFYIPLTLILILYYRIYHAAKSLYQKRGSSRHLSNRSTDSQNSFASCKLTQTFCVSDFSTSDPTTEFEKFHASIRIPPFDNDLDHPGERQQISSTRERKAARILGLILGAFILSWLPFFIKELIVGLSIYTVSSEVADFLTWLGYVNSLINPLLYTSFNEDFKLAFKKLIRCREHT

[39] = target: T1, Alpha-2A adrenergic receptor (Homo sapiens) (UniProt P08913); details: Compound concentration 10.0 uM
T1 sequence (whole entry): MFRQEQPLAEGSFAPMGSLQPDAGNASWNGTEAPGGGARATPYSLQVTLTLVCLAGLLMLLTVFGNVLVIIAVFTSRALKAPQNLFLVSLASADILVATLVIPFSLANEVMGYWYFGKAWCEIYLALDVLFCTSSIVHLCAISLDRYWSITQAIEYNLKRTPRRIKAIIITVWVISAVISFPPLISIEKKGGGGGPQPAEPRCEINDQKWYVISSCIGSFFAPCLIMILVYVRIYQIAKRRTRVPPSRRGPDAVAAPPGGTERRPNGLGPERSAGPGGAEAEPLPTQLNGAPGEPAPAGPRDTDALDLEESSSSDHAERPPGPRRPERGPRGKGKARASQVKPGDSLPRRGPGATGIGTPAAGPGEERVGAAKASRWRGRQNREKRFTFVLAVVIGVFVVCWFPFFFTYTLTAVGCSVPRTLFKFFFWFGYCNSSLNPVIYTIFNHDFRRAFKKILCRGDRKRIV

C[C@@H](c1cccc(C#N)c1)n1cc(Cl)cc(C(N)=O)c1=N [(S)-9s]
residual activity [1]: 78%
residual activity [2]: 100%
residual activity [3]: 100%
residual activity [4]: 80%
residual activity [5]: 100%
residual activity [6]: 90%
residual activity [7]: 100%
residual activity [8]: 82%
residual activity [9]: 72%
residual activity [10]: 100%
residual activity [11]: 100%
residual activity [12]: 91%
residual activity [13]: 94%
residual activity [14]: 90%
residual activity [15]: 79%
residual activity [16]: 100%
residual activity [17]: 93%
residual activity [18]: 90%
residual activity [19]: 94%
residual activity [20]: 100%
residual activity [21]: 95%
residual activity [22]: 67%
residual activity [23]: 96%
residual activity [24]: 100%
residual activity [25]: 85%
residual activity [26]: 100%
residual activity [27]: 78%
residual activity [28]: 93%
residual activity [29]: 100%
residual activity [30]: 100%
residual activity [31]: 85%
residual activity [32]: 100%
residual activity [33]: 87%
residual activity [34]: 100%
residual activity [35]: 100%
residual activity [36]: 68%
residual activity [37]: 77%
inhibition [38]: -1.72%
inhibition [39]: -1.01%

C[C@H](c1cccc(C#N)c1)n1cc(Cl)cc(C(N)=O)c1=N [(R)-9s]
residual activity [1]: 84%
residual activity [2]: 100%
residual activity [3]: 100%
residual activity [4]: 93%
residual activity [5]: 100%
residual activity [6]: 100%
residual activity [7]: 100%
residual activity [8]: 96%
residual activity [9]: 67%
residual activity [10]: 100%
residual activity [11]: 77%
residual activity [12]: 86%
residual activity [13]: 100%
residual activity [14]: 82%
residual activity [15]: 100%
residual activity [16]: 91%
residual activity [17]: 92%
residual activity [18]: 100%
residual activity [19]: 99%
residual activity [20]: 100%
residual activity [21]: 91%
residual activity [22]: 73%
residual activity [23]: 91%
residual activity [24]: 92%
residual activity [25]: 68%
residual activity [26]: 100%
residual activity [27]: 86%
residual activity [28]: 94%
residual activity [29]: 100%
residual activity [30]: 97%
residual activity [31]: 100%
residual activity [32]: 92%
residual activity [33]: 100%
residual activity [34]: 96%
residual activity [35]: 100%
residual activity [36]: 33%
residual activity [37]: 97%
inhibition [38]: -3.17%
inhibition [39]: 4.64%
